Assay: Thermal stability, percentage of decomposition (GB/T 23800-2009, modified)
Type: physicochemical
Conditions: after 500 hours at 320° C.
Description: The thermal stability has been evaluated in the present invention by measuring, according to the GB/T 23800-2009 standard, the percentage of decomposition of the fluid. The test performed in the present example differs from the standard by the temperature and the duration of the test. According to the example, the percentage of decomposition of the fluid has been measured after 500 hours at 320° C.
The fluid of Ex. 3 according to the invention and defined above has been compared with other commercial fluids: an alkylbenzene fluid, a dibenzyltoluene isomer, a mineral base oil and a hydrotreated mineral base oil.

Substance: dibenzyltoluene isomer
- Thermal stability (% of decomposition): 6.9%

From patent publication US11680196B2, “Use of biodegradable hydrocarbon fluids as heat-transfer media” (TOTAL MARKETING SERVICES, priority 2016, dated 2023)
